Assay results reported in patent publication US20180118722A1, “NOVEL ARYL-CYANOGUANIDINE COMPOUNDS” (Bayer Pharma Aktiengesellschaft, priority 2015, published 2018).

What was measured:
SMYD2 [1] = molecular target: T1, SMYD2 (Homo sapiens, UniProt Q9NRG4); assay: In Cell Western (ICW) cell-based assay for detection of SMYD2 methylation activity (p53K370me1) in SMYD2 overexpressing KYSE-150 cells; set-up: expressed in transfected cells; host or cells: KYSE-150 (human esophageal carcinoma, DSMZ ACC 375); conditions: 72 h treatment, p53K370me1 signal, read-out: IC50 [mol/l] (ICW assay)
T1 sequence (Q9NRG4 whole entry): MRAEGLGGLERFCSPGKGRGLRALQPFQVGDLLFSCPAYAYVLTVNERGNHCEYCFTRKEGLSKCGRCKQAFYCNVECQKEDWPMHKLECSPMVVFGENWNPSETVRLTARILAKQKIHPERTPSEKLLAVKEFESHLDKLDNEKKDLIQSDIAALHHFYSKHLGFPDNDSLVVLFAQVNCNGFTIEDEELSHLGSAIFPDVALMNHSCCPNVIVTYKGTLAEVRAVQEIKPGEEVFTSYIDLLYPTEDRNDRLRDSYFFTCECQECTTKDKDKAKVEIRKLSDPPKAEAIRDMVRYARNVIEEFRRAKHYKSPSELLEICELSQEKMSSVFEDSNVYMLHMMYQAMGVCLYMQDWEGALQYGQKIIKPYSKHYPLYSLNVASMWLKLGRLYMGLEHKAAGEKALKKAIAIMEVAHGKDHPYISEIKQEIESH
Text: 1.2 Cell-Based Assay for Detection of SMYD2 Methylation Activity
For the detection of SMYD2 cellular methylation activity an In Cell Western (ICW) assay was established. This assay allows rapid processing of multiple samples for SMYD2 methylation derived immunofluorescence signals, with normalization to cell number via the use of the nucleic acid dye DRAQS. KYSE-150 cells (human esophageal carcinoma cell line; DSMZ-German Collection of Microorganisms and Cell Cultures; No: ACC 375) have been stably transfected with a construct expressing wild-type SMYD2 (NCBI Reference Sequence: NP_064582.2). […]
For conducting the ICW assay 5000 SMYD2 overexpressing KYSE-150 cells/well were seeded in 96-well plates (SIGMA) and cultivated for 24 h. […] After 5 washes with PBS, the fluorescence in each well was measured on an Odyssey (LI-COR) scanner at 800 nm (p53K370me1 signal; 764 nm excitation) and 700 nm (DRAQS signal; 683 nm excitation). Fluorescence intensity was quantified and normalized to background and DRAQS signals. IC50 values were calculated by fitting the normalized inhibition data to a 4-parameter logistic equation (Minimum, Maximum, IC50, Hill; Y=Max+(Min−Max)/(1+(X/IC50)Hill)) for each tested compound. For IC50 determination C0 (=no inhibition) was defined as the signal measured for DMSO treated controls. […]

SMYD2 [2] = molecular target: T1, SMYD2; assay: Scintillation proximity assay (SPA) for detection of SMYD2 enzymatic inhibition; assay type: biochemical; set-up: The SMYD2 full length enzyme was produced in-house by expression (with an N-terminal 6×His tag) in E. coli; 6xHis (N); made in house; host or cells: E. coli; conditions: p53 Peptide substrate 1.0 μM, 3H-SAM 60 nM, 30 min at 22° C.; read-out: IC50 [mol/l] (SPA Assay)
Text: 1.1 Scintillation Proximity Assay (SPA) for Detection of SMYD2 Enzymatic Inhibition
SMYD2 inhibitory activities of the compounds described in the present invention were quantified using a scintillation proximity assay (SPA) which measures methylation by the enzyme of the synthetic, biotinylated peptide Btn-Ahx-[…]−Amid×TFA (Biosyntan) derived from p53 and referred to from here on as “p53 Peptide”. The SMYD2 full length enzyme was produced in-house by expression (with an N-terminal 6×His tag) in E. coli and purification by affinity chromatography on a Ni-NTA Sepharose column followed by a size exclusion chromatography step on a Superdex 200 16/60 column (GE Healthcare).
In a typical assay 11 different concentrations of each compound (0.1 nM, 0.33 nM, 1.1 nM, 3.8 nM, 13 nM, 44 nM, 0.15 μM, 0.51 μM, 1.7 μM, 5.9 μM and 20 μM) were tested in duplicate within the same microtiter plate. To this end, 100-fold concentrated compound solutions (in DMSO) were previously prepared by serial dilution (1:3.4) of 2 mM stocks in a clear low volume 384-well source microtiter plate (Greiner Bio-One), from which 50 nl of compound solutions were transferred into a white low volume test microtiter plate from the same supplier. […] IC50 values were calculated by fitting the normalized inhibition data to a 4-parameter logistic equation using the “Screener” analysis software from Genedata.

N#C/N=C(/Nc1cccc(OC(F)F)c1)N1CC(N2CCCC(N)C2=O)C(c2ccc(Cl)c(Cl)c2)=N1 (stereo not shown) [Example 1, 4-(3-amino-2-oxopiperidin-1-yl)-N′-cyano-3-(3 ,4-dichlorophenyl)-N-[3-(difluoromethoxy)phenyl]-4,5-dihydro-1H-pyrazole-1-carboximidamide] showed an IC50 (SMYD2 [1]) of 100 nM and an IC50 (SMYD2 [2]) of 31.6 nM.

For N#C/N=C(/Nc1cccc(OC(F)F)c1)N1CC(N2CCC(N)C2=O)C(c2ccc(Cl)c(Cl)c2)=N1 (stereo not shown) [Example 2, 4-(3-amino-2-oxopyrrolidin-1-yl)-N′-cyano-3-(3,4-dichlorophenyl)-N-[3-(difluoromethoxy)phenyl]-4,5-dihydro-1H-pyrazole-1-carboximidamide], the IC50 (SMYD2 [1]) was 171 nM and the IC50 (SMYD2 [2]) was 302 nM.
